Measurements reported in US20260201008A1, “SECRETIN-DERIVED GLP1R SELECTIVE AGONISTS” (GUBRA A/S, priority 2023, published 2026).
Where two headings read alike, the source gives them in different places. Numbered stars: 1 amine (or outer) side, 2 acyl side, 3 side chain; on linkers, the order of the positions; unused ones are H or OH. Square brackets hold non-standard residues; d marks the D form. Side chains are listed from the residue outwards. Peptide text beside a SMILES is read from it. * marks the point of attachment. C20 diacid = O=C(O)CCCCCCCCCCCCCCCCCCC(=O)*; γGlu = O=C(O)[C@H](CCC(=O)[*:2])N[*:1]; AEEA = NCCOCCOCC(=O)O; Aib = CC(C)(N)C(=O)O

Experiments:
[1] = Turbidity of crude library peptides (absorbance at 600 nm); format: physicochemical; conditions: Physical stability of peptides
How it was run: (§1)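 Crude peptides at 267 μM in 50 mM sodium acetate pH 4.0 or 50 mM sodium phosphate pH 7.0, pre-incubated 1-2 h at room temperature, then 4 μM final ThT added. Turbidity read first as A600. ThT fluorescence (ex 450/em 480 nm) read every 10 min for 72 h at 40° C, with 5 min shaking before each read; fibril formation = average emission.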

GLP1R = GLP1R (Homo sapiens, UniProt P43220); test: hGLP1R potency, cAMP accumulation in CHO-K1 cells stably overexpressing hGLP1R; format: cell-based; design: host or cells: CHO-K1; conditions: for Selectivity: SCTR EC50/GLP1R EC50 ratio; for SCTR EC50/GLP1R EC50 ratio: selectivity for hGLP1R over hSCTR, cAMP accumulation in CHO-K1 cells
GLP1R, sequence (P43220 24-463): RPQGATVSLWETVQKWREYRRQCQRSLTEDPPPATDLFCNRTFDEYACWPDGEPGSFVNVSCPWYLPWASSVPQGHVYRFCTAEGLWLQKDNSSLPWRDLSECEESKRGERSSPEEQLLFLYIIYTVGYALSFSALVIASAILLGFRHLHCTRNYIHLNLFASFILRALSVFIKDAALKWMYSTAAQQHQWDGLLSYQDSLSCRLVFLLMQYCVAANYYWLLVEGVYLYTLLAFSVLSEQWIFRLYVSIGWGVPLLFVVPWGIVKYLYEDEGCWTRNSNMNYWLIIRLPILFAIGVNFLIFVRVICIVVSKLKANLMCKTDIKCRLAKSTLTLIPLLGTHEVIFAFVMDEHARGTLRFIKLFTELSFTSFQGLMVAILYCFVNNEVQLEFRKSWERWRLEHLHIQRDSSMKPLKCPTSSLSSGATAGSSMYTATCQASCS
How it was run: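 Thawed cells go straight into buffer containing 0.5 mM IBMX and 0.05% casein, get graded compound doses for 30 min at room temperature, and are then assayed for accumulated cAMP by time-resolved FRET. Human GLP-1(7-36) serves as positive control; EC50 is derived by nonlinear regression.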

SCTR = SCTR (Homo sapiens, UniProt P47872); test: hSCTR potency, cAMP accumulation in CHO-K1 cells stably overexpressing hSCTR; format: cell-based; design: alternatively Euroscreen ES-712-AF; FAST-0161L; host or cells: CHO-K1
SCTR, sequence (P47872 23-440): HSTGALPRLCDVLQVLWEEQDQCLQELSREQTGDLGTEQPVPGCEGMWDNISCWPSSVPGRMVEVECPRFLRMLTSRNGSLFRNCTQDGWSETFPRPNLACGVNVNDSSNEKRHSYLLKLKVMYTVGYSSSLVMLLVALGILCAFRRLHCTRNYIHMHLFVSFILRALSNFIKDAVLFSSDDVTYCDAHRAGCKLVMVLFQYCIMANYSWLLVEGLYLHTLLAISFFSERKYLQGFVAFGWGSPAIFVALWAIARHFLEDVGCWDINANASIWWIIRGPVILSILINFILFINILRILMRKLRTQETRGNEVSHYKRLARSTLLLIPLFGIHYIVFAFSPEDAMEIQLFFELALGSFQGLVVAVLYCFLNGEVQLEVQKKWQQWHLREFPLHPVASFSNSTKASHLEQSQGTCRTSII
How it was run: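 Read-out is TR-FRET cAMP detection, recorded one hour after reagent addition, in CHO-K1 cells stably overexpressing hSCTR. Cells in DPBS containing 0.05% casein and 0.5 mM IBMX are exposed to graded peptide doses for 30 min at room temperature, with human secretin as reference agonist.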

[2] = Fibril formation of crude library peptides (Thioflavin T); format: physicochemical; design: key: average ThT fluorescence emission at 480 nm (ex 450 nm), raw units; conditions: Physical stability of peptides
How it was run: as §1

[3] = cAMP accumulation, CHO-K1 cells overexpressing hGLP1R, read-out: pEC50 hGLPR1 (converted)
[4] = cAMP accumulation, CHO-K1 cells overexpressing hSCTR, read-out: pEC50 hSCTR (converted)
[5] = cAMP accumulation, CHO-K1 cells overexpressing hGLP1R, read-out: hGLP1R pEC50 (converted)
[6] = cAMP accumulation, CHO-K1 cells overexpressing hSCTR, read-out: hSCTR pEC50 (converted)

Row | SMILES | Turbidity (pH 7) [1] | Selectivity (GLP1R) | EC50 (GLP1R; [3]) [nM] | EC50 (SCTR; [4]) [nM] | Fibril formation [2] | EC50 (GLP1R; [5]) [nM] | SCTR EC50/GLP1R EC50 ratio (GLP1R) | EC50 (SCTR; [6]) [nM] | EC50 (GLP1R) [nM] | EC50 (SCTR) [nM]
1 | CC(C)C[C@H](NC(=O)[C@H](Cc1ccccc1)NC(=O)[C@H](CCCNC(=N)N)NC(=O)[C@H](CCC(N)=O)NC(=O)[C@H](CO)NC(=O)[C@H](C)NC(=O)[C@H](C)NC(=O)C(C)(C)NC(=O)[C@H](CCC(=O)O)NC(=O)[C@H](CCCCNC(=O)COCCOCCNC(=O)COCCOCCNC(=O)CC[C@H](NC(=O)CCCCCCCCCCCCCCCCCCC(=O)O)C(=O)O)NC(=O)[C@H](CC(C)C)NC(=O)[C@H](Cc1ccccc1)NC(=O)[C@H](CO)NC(=O)[C@@H](NC(=O)[C@H](CC(=O)O)NC(=O)[C@H](CO)NC(=O)[C@@H](NC(=O)[C@H](Cc1ccccc1)NC(=O)[C@@H](NC(=O)CNC(=O)[C@H](CCC(=O)O)NC(=O)C(C)(C)NC(=O)[C@@H](N)Cc1c[nH]cn1)[C@@H](C)O)[C@@H](C)O)C(C)C)C(=O)N[C@@H](CCC(=O)O)C(=O)N[C@@H](Cc1c[nH]cn1)C(=O)N[C@@H](CC(C)C)C(=O)N[C@H](C(N)=O)C(C)C [compound 74] (H-H[Aib]EGTFTSDVSFLK([AEEA-AEEA-γGlu-C20 diacid])E[Aib]AASQRFLEHLV-NH2) | 0.08 | 231739 | 0.0631 | 12600 | 12039 | – | – | – | – | –
2 | CC(C)C[C@H](NC(=O)[C@H](Cc1ccccc1)NC(=O)[C@H](CCCNC(=N)N)NC(=O)[C@H](CCC(N)=O)NC(=O)[C@H](CC(C)C)NC(=O)C(C)(C)NC(=O)[C@H](C)NC(=O)[C@H](CCC(=O)O)NC(=O)[C@H](CCC(=O)O)NC(=O)[C@H](CCCCNC(=O)COCCOCCNC(=O)COCCOCCNC(=O)CC[C@H](NC(=O)CCCCCCCCCCCCCCCCCCC(=O)O)C(=O)O)NC(=O)[C@H](CC(C)C)NC(=O)[C@H](Cc1ccc(O)cc1)NC(=O)[C@H](CO)NC(=O)[C@@H](NC(=O)[C@H](CC(=O)O)NC(=O)[C@H](CO)NC(=O)[C@@H](NC(=O)[C@H](Cc1ccccc1)NC(=O)[C@@H](NC(=O)CNC(=O)[C@H](CCC(=O)O)NC(=O)C(C)(C)NC(=O)[C@@H](N)Cc1c[nH]cn1)[C@@H](C)O)[C@@H](C)O)C(C)C)C(=O)N[C@@H](CCC(=O)O)C(=O)N[C@@H](Cc1c[nH]c2ccccc12)C(=O)N[C@@H](CC(C)C)C(=O)N[C@H](C(N)=O)C(C)C [compound 169] (H-H[Aib]EGTFTSDVSYLK([AEEA-AEEA-γGlu-C20 diacid])EEA[Aib]LQRFLEWLV-NH2) | 0.08 | – | – | – | 3552 | 0.0398 | 14974 | 501 | – | –
3 | CC(C)C[C@H](NC(=O)[C@H](Cc1ccccc1)NC(=O)[C@H](CCCNC(=N)N)NC(=O)[C@H](CCC(N)=O)NC(=O)[C@H](CC(C)C)NC(=O)C(C)(C)NC(=O)[C@H](C)NC(=O)[C@H](CCC(=O)O)NC(=O)[C@H](CCC(=O)O)NC(=O)[C@H](CCCCNC(=O)COCCOCCNC(=O)COCCOCCNC(=O)CC[C@H](NC(=O)CCCCCCCCCCCCCCCCCCC(=O)O)C(=O)O)NC(=O)[C@H](CC(C)C)NC(=O)[C@H](Cc1ccc(O)cc1)NC(=O)[C@H](CO)NC(=O)[C@@H](NC(=O)[C@H](CC(=O)O)NC(=O)[C@H](CO)NC(=O)[C@@H](NC(=O)[C@H](Cc1ccccc1)NC(=O)[C@@H](NC(=O)CNC(=O)[C@H](Cc1c[nH]cn1)NC(=O)C(C)(C)NC(=O)[C@@H](N)Cc1c[nH]cn1)[C@@H](C)O)[C@@H](C)O)C(C)C)C(=O)N[C@@H](CCC(=O)O)C(=O)N[C@@H](Cc1c[nH]cn1)C(=O)N[C@@H](CC(C)C)C(=O)N[C@H](C(N)=O)C(C)C [compound 171] (H-H[Aib]HGTFTSDVSYLK([AEEA-AEEA-γGlu-C20 diacid])EEA[Aib]LQRFLEHLV-NH2) | 0.08 | – | – | – | 3473 | 0.158 | 209459 | 31600 | – | –
4 | CC(C)C[C@H](NC(=O)[C@H](Cc1ccccc1)NC(=O)[C@H](CCCNC(=N)N)NC(=O)[C@H](CCC(N)=O)NC(=O)[C@H](CCC(N)=O)NC(=O)[C@H](C)NC(=O)[C@H](C)NC(=O)C(C)(C)NC(=O)[C@H](CCC(=O)O)NC(=O)[C@H](CCCCNC(=O)COCCOCCNC(=O)COCCOCCNC(=O)CC[C@H](NC(=O)CCCCCCCCCCCCCCCCCCC(=O)O)C(=O)O)NC(=O)[C@H](CC(C)C)NC(=O)[C@H](CCC(=O)O)NC(=O)[C@H](CO)NC(=O)[C@@H](NC(=O)[C@H](CC(=O)O)NC(=O)[C@H](CO)NC(=O)[C@@H](NC(=O)[C@H](Cc1ccccc1)NC(=O)[C@@H](NC(=O)CNC(=O)[C@H](CCC(=O)O)NC(=O)C(C)(C)NC(=O)[C@@H](N)Cc1c[nH]cn1)[C@@H](C)O)[C@@H](C)O)C(C)C)C(=O)N[C@@H](CCC(=O)O)C(=O)N[C@@H](Cc1c[nH]cn1)C(=O)N[C@@H](CC(C)C)C(=O)N[C@H](C(N)=O)C(C)C [compound 5] (H-H[Aib]EGTFTSDVSELK([AEEA-AEEA-γGlu-C20 diacid])E[Aib]AAQQRFLEHLV-NH2) | 0.09 | 6907 | 0.0126 | 79.4 | 14563 | – | – | – | – | –
5 | CC(C)C[C@H](NC(=O)[C@H](Cc1ccccc1)NC(=O)[C@H](CCCNC(=N)N)NC(=O)[C@H](CCC(N)=O)NC(=O)[C@H](C)NC(=O)[C@H](C)NC(=O)[C@H](C)NC(=O)[C@@H](NC(=O)[C@H](CCC(=O)O)NC(=O)[C@H](CCCCNC(=O)COCCOCCNC(=O)COCCOCCNC(=O)CC[C@H](NC(=O)CCCCCCCCCCCCCCCCCCC(=O)O)C(=O)O)NC(=O)[C@H](CC(C)C)NC(=O)[C@@H](NC(=O)[C@H](CO)NC(=O)[C@@H](NC(=O)[C@H](CC(=O)O)NC(=O)[C@H](CO)NC(=O)[C@@H](NC(=O)[C@H](Cc1ccccc1)NC(=O)[C@@H](NC(=O)CNC(=O)[C@H](CCC(=O)O)NC(=O)C(C)(C)NC(=O)[C@@H](N)Cc1c[nH]cn1)[C@@H](C)O)[C@@H](C)O)C(C)C)C(C)C)[C@@H](C)O)C(=O)N[C@@H](CCC(=O)O)C(=O)N[C@@H](Cc1c[nH]cn1)C(=O)N[C@@H](CC(C)C)C(=O)N[C@H](C(N)=O)C(C)C [compound 62] (H-H[Aib]EGTFTSDVSVLK([AEEA-AEEA-γGlu-C20 diacid])ETAAAQRFLEHLV-NH2) | 0.08 | 18608 | – | – | 21979 | – | – | – | 0.1 | 2000
6 | CC(C)C[C@H](NC(=O)[C@H](Cc1ccccc1)NC(=O)[C@H](CCCNC(=N)N)NC(=O)[C@H](CCC(N)=O)NC(=O)[C@H](CO)NC(=O)[C@H](C)NC(=O)[C@H](C)NC(=O)[C@H](Cc1ccccc1)NC(=O)[C@H](CCC(=O)O)NC(=O)[C@H](CCCCNC(=O)COCCOCCNC(=O)COCCOCCNC(=O)CC[C@H](NC(=O)CCCCCCCCCCCCCCCCCCC(=O)O)C(=O)O)NC(=O)[C@H](CC(C)C)NC(=O)[C@H](Cc1ccc(O)cc1)NC(=O)[C@H](CO)NC(=O)[C@@H](NC(=O)[C@H](CC(=O)O)NC(=O)[C@H](CO)NC(=O)[C@@H](NC(=O)[C@H](Cc1ccccc1)NC(=O)[C@@H](NC(=O)CNC(=O)[C@H](CCC(=O)O)NC(=O)C(C)(C)NC(=O)[C@@H](N)Cc1c[nH]cn1)[C@@H](C)O)[C@@H](C)O)C(C)C)C(=O)N[C@@H](CCC(=O)O)C(=O)N[C@@H](Cc1c[nH]cn1)C(=O)N[C@@H](CC(C)C)C(=O)N[C@H](C(N)=O)C(C)C [compound 66] (H-H[Aib]EGTFTSDVSYLK([AEEA-AEEA-γGlu-C20 diacid])EFAASQRFLEHLV-NH2) | 0.08 | 81752 | 0.0398 | 3160 | 201306 | – | – | – | – | –
7 | CC(C)C[C@H](NC(=O)[C@H](Cc1ccccc1)NC(=O)[C@H](CCCNC(=N)N)NC(=O)[C@H](CCC(N)=O)NC(=O)[C@H](C)NC(=O)C(C)(C)NC(=O)[C@H](C)NC(=O)[C@H](CCC(=O)O)NC(=O)[C@H](CCC(=O)O)NC(=O)[C@H](CCCCNC(=O)COCCOCCNC(=O)COCCOCCNC(=O)CC[C@H](NC(=O)CCCCCCCCCCCCCCCCCCC(=O)O)C(=O)O)NC(=O)[C@H](CC(C)C)NC(=O)[C@H](Cc1ccc(O)cc1)NC(=O)[C@H](CO)NC(=O)[C@@H](NC(=O)[C@H](CC(=O)O)NC(=O)[C@H](CO)NC(=O)[C@@H](NC(=O)[C@H](Cc1ccccc1)NC(=O)[C@@H](NC(=O)CNC(=O)[C@H](CCC(=O)O)NC(=O)C(C)(C)NC(=O)[C@@H](N)Cc1c[nH]cn1)[C@@H](C)O)[C@@H](C)O)C(C)C)C(=O)N[C@@H](CCC(=O)O)C(=O)N[C@@H](Cc1c[nH]cn1)C(=O)N[C@@H](CC(C)C)C(=O)N[C@H](C(N)=O)C(C)C [compound 146] (H-H[Aib]EGTFTSDVSYLK([AEEA-AEEA-γGlu-C20 diacid])EEA[Aib]AQRFLEHLV-NH2) | 0.08 | – | – | – | 3918 | 0.00251 | 789678 | 2000 | – | –
